Consider 17 molecules from article PMC8286831, “Identifying SARS-CoV-2 antiviral compounds by screening for small molecule inhibitors of nsp13 helicase” (Biochemical Journal, 2021).

SMILES strings stand for the structures. “And” between values parts separate entries of the source, which are not always exact repeats. Equal entries are not always repeated. “Also recorded” adds a separate entry of the source. Where two headings read alike, the source gives them in different places.

Assay [1] concerns the target T1, SARS-CoV-2 nsp13 helicase (Severe acute respiratory syndrome coronavirus 2, UniProt P0DTD1). The assay can be described thus: biochemical. It is filed as biochemical.
Assay [2] addresses T1, SARS-CoV-2 nsp13 helicase. It is filed as biochemical.
Assay [3] addresses T2, SARS-CoV-2 RdRp holoenzyme (Severe acute respiratory syndrome coronavirus 2, UniProt P0DTD1).
T2 construct: (Sf nsp12-3F/7L8 preincubated with Sf 7H8 at a 1:3 ratio); 3F (3xFlag) (C); made in house; host or cells: 'Sf', read as Spodoptera frugiperda insect cells (my inference from the prefix); details are in Bertolin et al
The assay can be described thus: FRET-based RdRp strand displacement assay. In kind it is biochemical.

Another assay relates to SARS-CoV-2. The assay is described as follows: microbe, parasite or virus in culture. In kind it is cell-based. Conditions: for EC50: read-out: EC50 viral inhibition.
Setting [4] is: RNA (nsp13 substrate), 0.3 mM ATP, 0.02% Tween-20 in RdRp assay buffer, read-out: IC50 nsp13.
[5] abbreviates: read-out: IC50 + 0.02% Tween-20.
Where [6] appears, read: RNA (RdRp substrate), 0.3 mM each NTP, 0.02% Tween-20 in RdRp assay buffer, read-out: IC50 RdRp.
The mark [7] stands for this setting: read-out: IC50 + 0.01% Triton X-100.
Where [8] appears, read: Severe acute respiratory syndrome coronavirus 2, Vero C1008, 22 h.
The mark [9] stands for this setting: presence or absence of non-ionic detergent.
Where [10] appears, read: read-out: IC50 0.02% Tween-20 + (presence).
[11] abbreviates: read-out: IC50 0.02% Tween-20 − (absence).
Where [12] appears, read: IC50 0.02% Tween-20 + (presence).
Setting [13] is: IC50 0.02% Tween-20 − (absence).
[14] abbreviates: RNA (nsp13 substrate), 0.3 mM ATP, 0.02% Tween-20 in RdRp assay buffer.
[15] abbreviates: RNA (RdRp substrate), 0.3 mM each NTP, 0.02% Tween-20 in RdRp assay buffer.

On to `Cc1cc(-c2ccc(N=Nc3c(S(=O)(=O)[O-])cc4cc(S(=O)(=O)[O-])cc(N)c4c3O)c(C)c2)ccc1N=Nc1c(S(=O)(=O)[O-])cc2cc(S(=O)(=O)[O-])cc(N)c2c1O.[Na+].[Na+].[Na+].[Na+]` [Diphenyl Blue], for which the IC50 in assay [1] (setting [4]) came to 4 µM; in assay [1] (setting [5]) it was 4.7 µM; in assay [1] (read-out: IC50 No detergent) it was 5.6 µM; in assay [3] (setting [6]), 5 µM. For the same molecule, the “inhibition of duplex unwinding in gel-based assay” value (from here on “inhibition of duplex unwinding”) in assay [2] is listed as “clearly reduced the generation of single-stranded Cy3 strand”.
Take `Cc1cc(-c2ccc(/N=N/c3ccc4c(S(=O)(=O)O)cc(S(=O)(=O)O)c(N)c4c3O)c(C)c2)ccc1/N=N/c1ccc2c(S(=O)(=O)O)cc(S(=O)(=O)O)c(N)c2c1O` [Evans Blue]: the IC50 in assay [1] (IC50 No detergent) came to 1.2 µM; in assay [1] (setting [4]) it was 1.5 µM. Also, in assay [2], the “inhibition of duplex unwinding” value is “clearly reduced the generation of single-stranded Cy3 strand”.
For the molecule `NC(=S)N/N=C/c1coc2ccccc2c1=O.[Cl][Cu][Cl]` [FPA 124], the “nsp13 inhibition and detergent sensitivity” value in assay [1] is on record as “no detergent sensitivity; also recorded: largely insensitive to detergent addition”. Moreover, the half-inhibitory concentration (IC50) is 8.9 µM in assay [1] (setting [7]); 8.4 µM in assay [1] (setting [5]); 9.1 µM in assay [1] (read-out: IC50 -Triton X-100); 8.5 µM in assay [1] (read-out: IC50 No detergent); approximately 9 µM in assay [1] (read-out: IC50 against nsp13 in vitro). For the same molecule, the concentration for a half-maximal effect (EC50) in the assay on SARS-CoV-2 is 14 µM and ~14 µM. In addition, the “inhibition of duplex unwinding” value in assay [2] was “clearly reduced the generation of single-stranded Cy3 strand”.
For the molecule `O=c1c(O)c(-c2cc(O)c(O)c(O)c2)oc2cc(O)cc(O)c12` [Myricetin], in assay [1], the “nsp13 inhibition and detergent sensitivity” value is on record as “clear inhibition only in the absence of detergent”. The 50% effective concentration (EC50) with SARS-CoV-2 (setting [8]) is 32 µM; with SARS-CoV-2, 31.6 µM. The “inhibition of duplex unwinding” value in assay [2] was “inhibited nsp13 with less efficiency”.
`O=C(Nc1cccc(C(=O)Nc2ccc(S(=O)(=O)[O-])c3cc(S(=O)(=O)[O-])cc(S(=O)(=O)[O-])c23)c1)Nc1cccc(C(=O)Nc2ccc(S(=O)(=O)[O-])c3cc(S(=O)(=O)[O-])cc(S(=O)(=O)[O-])c23)c1.[Na+].[Na+].[Na+].[Na+].[Na+].[Na+]` [NF 023]: the IC50 stood at 0.7 µM in assay [1] (setting [4]); 0.64 µM in assay [1] (setting [10]); 0.67 µM in assay [1] (setting [11]); 0.51 µM in assay [1] (setting [7]); 0.92 µM in assay [1] (setting [5]); 0.33 µM in assay [1] (read-out: IC50 -Triton X-100). In assay [1] (setting [9]), the “nsp13 inhibition and detergent sensitivity” value is given as “largely insensitive to detergent addition”. Also, in assay [2], the “inhibition of duplex unwinding” value is on record as “clearly reduced the generation of single-stranded Cy3 strand”.
On to `CC1(C)CCC(c2ccc(Cl)cc2)=C(CN2CCN(c3ccc(C(=O)NS(=O)(=O)c4ccc(N[C@H](CCN5CCOCC5)CSc5ccccc5)c(S(=O)(=O)C(F)(F)F)c4)cc3)CC2)C1` [Navitoclax], for which the IC50 was more than 250 µM in assay [1] (setting [12]); 0.74 µM in assay [1] (setting [13]); 7.3 µM in assay [1] (IC50 + 0.01% Triton X-100); more than 250 µM in assay [1] (IC50 + 0.02% Tween-20); 2.2 µM in assay [1] (IC50 -Triton X-100); 1.2 µM in assay [1] (IC50 No detergent). Further, the 50% inhibitory concentration (IC50) in assay [1] (setting [4]) is more than 100 µM; in assay [3] (setting [6]), 92 µM. In addition, the “nsp13 inhibition and detergent sensitivity” value in assay [1] (setting [9]) is “strong sensitivity to detergents”.
In the case of `CCCCCCCC/C=C\CCCCCCCC(=O)O` [Oleic acid], the IC50 in assay [1] (setting [12]) amounted to 117 µM; in assay [1] (setting [13]) it was 14 µM; in assay [1] (IC50 + 0.02% Tween-20), 58 µM; in assay [1] (IC50 No detergent) it was 6.8 µM. Also, the “IC50 nsp13” value in assay [1] (setting [14]) is given as “No inhibition”. In addition, the “IC50 RdRp” value in assay [3] (setting [15]) is reported as “No inhibition”.
On to `Cc1nc(N=Nc2cc(S(=O)(=O)[O-])c3cc([N+](=O)[O-])cc(S(=O)(=O)[O-])c3c2)c(COP(=O)([O-])[O-])c(C=O)c1O.[Na+].[Na+].[Na+].[Na+]` [PPNDS], for which the IC50 in assay [1] (setting [4]) was 2.2 µM; in assay [1] (setting [5]), 1.6 µM; in assay [1] (read-out: IC50 No detergent), 2 µM; in assay [3] (setting [6]) it was 0.7 µM. In addition, the “inhibition of duplex unwinding” value in assay [2] was “clearly reduced the generation of single-stranded Cy3 strand”.
For the molecule `COc1cc(C(N)=O)ccc1NC(=O)[C@@H]1N[C@@H](CC(C)(C)C)[C@@]2(C(=O)Nc3cc(Cl)ccc32)[C@H]1c1cccc(Cl)c1F` [RO8994], the “IC50 nsp13” value in assay [1] is recorded as “No inhibition”. Moreover, the concentration for half-maximal inhibition (IC50) in assay [1] (setting [5]) is more than 250 µM; in assay [1] (read-out: IC50 No detergent), 2.9 µM. The “IC50 RdRp” value in assay [3] (setting [15]) is “No inhibition”.
Consider `CCC(CC)COC(=O)[C@H](C)N[P@](=O)(OC[C@H]1O[C@@](C#N)(c2ccc3c(N)ncnn23)[C@H](O)[C@@H]1O)Oc1ccccc1` [Remdesivir], for which, in the assay with SARS-CoV-2 (Severe acute respiratory syndrome coronavirus 2, Vero C1008, 1 µM remdesivir alone, Vero E6 cells, read-out: inhibition of viral infection), the inhibition at 1 µM was less than 20%.
As to `COc1cccc(NC(=O)/C=C/c2ccc(Cl)cc2)c1` [SB-366791], the “IC50 nsp13” value in assay [1] (setting [14]) is on record as “No inhibition”. For the same molecule, the half-inhibitory concentration (IC50) in assay [1] (setting [5]) and in assay [1] (read-out: IC50 No detergent) was more than 250 µM each time. In assay [3] (setting [15]), the “IC50 RdRp” value is on record as “No inhibition”.
For the molecule `C=CCn1c(CSc2ccccc2[N+](=O)[O-])n[nH]c1=S` [SSYA10-001], the “nsp13 inhibition and detergent sensitivity” value in assay [1] was “moderate sensitivity to detergent”. The IC50 is 21 µM in assay [1] (setting [7]), 28 µM in assay [1] (setting [5]), 14 µM in assay [1] (read-out: IC50 -Triton X-100) and 7.5 µM in assay [1] (read-out: IC50 No detergent). Moreover, in the assay with SARS-CoV-2, the concentration for a half-maximal effect (EC50) is 81 µM and 80.5 µM. Further, the “inhibition of duplex unwinding” value in assay [2] was “inhibited nsp13 with less efficiency”.
With `Cc1ccc(C(=O)Nc2ccc(S(=O)(=O)O)c3cc(S(=O)(=O)O)cc(S(=O)(=O)O)c23)cc1NC(=O)c1cccc(NC(=O)Nc2cccc(C(=O)Nc3cc(C(=O)Nc4ccc(S(=O)(=O)O)c5cc(S(=O)(=O)O)cc(S(=O)(=O)O)c45)ccc3C)c2)c1` [Suramin], the “nsp13 inhibition and detergent sensitivity” value in assay [1] is “largely insensitive to detergent addition”. The half-inhibitory concentration (IC50) in assay [1] (setting [12]) is 1.6 µM; in assay [1] (setting [13]), 0.74 µM; in assay [1] (IC50 + 0.01% Triton X-100), 1.6 µM; in assay [1] (IC50 -Triton X-100), 1.3 µM; in assay [1] (IC50 No detergent), 0.94 µM; in assay [1] (IC50 against nsp13 in vitro), approximately 1 µM. In addition, the IC50 in assay [1] (IC50 nsp13) was 1.5 µM; in assay [3] (setting [6]), 0.5 µM. Also, the EC50 in the assay on SARS-CoV-2 (setting [8]) is 9.9 µM; with SARS-CoV-2 it was approximately 10 µM. For the same molecule, the “inhibition of duplex unwinding” value in assay [2] was “clearly reduced the generation of single-stranded Cy3 strand”.
Turning to `O=C1CC(=O)c2c(Cl)c(Cl)c(Cl)c(Cl)c21` [TCID], the IC50 is 15 µM in assay [1] (setting [10]); 1.9 µM in assay [1] (setting [11]); 24 µM in assay [1] (setting [5]); 8.1 µM in assay [1] (read-out: IC50 No detergent); 21 µM in assay [1] (read-out: IC50 nsp13); 35 µM in assay [3] (setting [6]).
In the case of `CC(C)c1ccccc1Cc1cc(C(=O)Nc2ccc(S(=O)(=O)c3ccccc3C(C)(C)C)cc2)c(O)c(O)c1O` [TW-37], the IC50 was 109 µM in assay [1] (setting [5]), 2.8 µM in assay [1] (read-out: IC50 No detergent), 39 µM in assay [1] (read-out: IC50 nsp13) and 27 µM in assay [3] (setting [6]).
Take `CC1(C)CCC(CN2CCN(c3ccc(C(=O)NS(=O)(=O)c4ccc(NCC5CCOCC5)c([N+](=O)[O-])c4)c(Oc4cnc5[nH]ccc5c4)c3)CC2)=C(c2ccc(Cl)cc2)C1` [Venetoclax/ABT-199, Venetoclax]: the figures for the IC50 in assay [1] (IC50 + 0.02% Tween-20) and in assay [1] (IC50 No detergent) were more than 250 µM and 25 µM, respectively. For the same molecule, the “IC50 nsp13” value in assay [1] (setting [14]) was “No inhibition”. Further, the “IC50 RdRp” value in assay [3] (setting [15]) is reported as “No inhibition”.
For the molecule `COc1cc(C(=O)NS(=O)(=O)c2ccccc2C)ccc1Cc1cn(C)c2ccc(NC(=O)OC3CCCC3)cc12` [Zafirlukast], the 50% inhibitory concentration (IC50) in assay [1] (setting [12]) is 50 µM; in assay [1] (setting [13]) it was 1.5 µM; in assay [1] (IC50 + 0.01% Triton X-100) it was 22 µM; in assay [1] (IC50 + 0.02% Tween-20) it was 53 µM and 55 µM; in assay [1] (IC50 -Triton X-100) it was 7.4 µM; in assay [1] (IC50 No detergent) it was 3.6 µM and 6.6 µM. The results for the IC50 in assay [1] (setting [4]) and in assay [3] were 48 µM and 46 µM, respectively.

For orientation: IC50 means the midpoint of a concentration-inhibition curve. The term EC50 denotes the concentration giving half of the maximal effect. What is called inhibition is the relative decrease from the control value, in per cent.
